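Results reflect a 48-hour exposure of cells in 96-well plates to compound at five concentrations. The concentration for 50% growth inhibition is given as GI50. TGI marks complete inhibition of growth.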
What was measured:
Assay in all cases: NCI anticancer screen, dose series, 48 h
CCRF-CEM leukemia = system: CCRF-CEM leukemia
A549 NSCLC = system: A549 NSCLC
NCI-H460 lung = system: NCI-H460 lung
NCI-H522 lung = system: NCI-H522 lung
MCF7 breast = system: MCF7 breast
HL-60(TB) leukemia = system: HL-60(TB) leukemia
OVCAR-5 ovarian = system: OVCAR-5 ovarian
COLO 205 colon = system: COLO 205 colon
OVCAR-8 ovarian = system: OVCAR-8 ovarian
KM12 colon = system: KM12 colon
NCI-H23 lung = system: NCI-H23 lung
OVCAR-3 ovarian = system: OVCAR-3 ovarian
SK-OV-3 ovarian = system: SK-OV-3 ovarian
PC-3 prostate = system: PC-3 prostate
SR leukemia = system: SR leukemia
HCT-116 colon = system: HCT-116 colon
HT29 colon = system: HT29 colon
NCI-H226 lung = system: NCI-H226 lung
SW-620 colon = system: SW-620 colon
A498 renal = system: A498 renal
SF-295 CNS = system: SF-295 CNS
RPMI-8226 leukemia = system: RPMI-8226 leukemia
SK-MEL-28 melanoma = system: SK-MEL-28 melanoma
SK-MEL-2 melanoma = system: SK-MEL-2 melanoma
LOX IMVI melanoma = system: LOX IMVI melanoma
K-562 leukemia = system: K-562 leukemia
T-47D breast = system: T-47D breast
SNB-19 CNS = system: SNB-19 CNS
DU-145 prostate = system: DU-145 prostate
M14 melanoma = system: M14 melanoma
TK-10 renal = system: TK-10 renal
HCC-2998 colon = system: HCC-2998 colon
MDA-MB-231 breast = system: MDA-MB-231 breast
NCI/ADR-RES ovarian = system: NCI/ADR-RES ovarian
MALME-3M melanoma = system: MALME-3M melanoma
EKVX NSCLC = system: EKVX NSCLC
SK-MEL-5 melanoma = system: SK-MEL-5 melanoma
CAKI-1 renal = system: CAKI-1 renal
MDA-MB-435 = system: MDA-MB-435
SF-268 CNS = system: SF-268 CNS
SNB-75 CNS = system: SNB-75 CNS
HOP-62 NSCLC = system: HOP-62 NSCLC
SN12C renal = system: SN12C renal
HCT-15 colon = system: HCT-15 colon
MOLT-4 leukemia = system: MOLT-4 leukemia
ACHN renal = system: ACHN renal
HS 578T breast = system: HS 578T breast
UACC-257 melanoma = system: UACC-257 melanoma
UO-31 renal = system: UO-31 renal
786-0 renal = system: 786-0 renal
MDA-N = system: MDA-N
HOP-92 NSCLC = system: HOP-92 NSCLC
SF-539 CNS = system: SF-539 CNS
UACC-62 melanoma = system: UACC-62 melanoma
RXF 393 renal = system: RXF 393 renal
BT-549 breast = system: BT-549 breast
OVCAR-4 ovarian = system: OVCAR-4 ovarian
IGROV1 ovarian = system: IGROV1 ovarian
U251 CNS = system: U251 CNS

C/C(=N\OCC(O)CNCCSCc1ccccc1)c1ccccc1Cl (stereo unspecified)
TGI (CCRF-CEM leukemia): 72.9 µM | TGI (A549 NSCLC): 45.6 µM | TGI (NCI-H460 lung): 52.3 µM | TGI (NCI-H522 lung): 52.8 µM | TGI (MCF7 breast): 44.6 µM | TGI (HL-60(TB) leukemia): 50.1 µM | TGI (OVCAR-5 ovarian): 37.9 µM | TGI (COLO 205 colon): 38.4 µM | TGI (OVCAR-8 ovarian): 32 µM | TGI (KM12 colon): 40.2 µM | TGI (NCI-H23 lung): > 100 µM | TGI (OVCAR-3 ovarian): 34.6 µM | TGI (SK-OV-3 ovarian): 35.4 µM | TGI (PC-3 prostate): 36.2 µM | TGI (SR leukemia): 78.3 µM | TGI (HCT-116 colon): 54.7 µM | TGI (HT29 colon): 41.4 µM | TGI (NCI-H226 lung): 35.4 µM | TGI (SW-620 colon): 40.6 µM | TGI (A498 renal): 31.9 µM | TGI (SF-295 CNS): 36.2 µM | TGI (RPMI-8226 leukemia): 43.4 µM | TGI (SK-MEL-28 melanoma): 37.5 µM | TGI (SK-MEL-2 melanoma): 62.7 µM | TGI (LOX IMVI melanoma): 36.5 µM | TGI (K-562 leukemia): 92.9 µM | TGI (T-47D breast): 48.6 µM | TGI (SNB-19 CNS): 39.7 µM | TGI (DU-145 prostate): 52.2 µM | TGI (M14 melanoma): 48 µM | TGI (TK-10 renal): 35.3 µM | TGI (HCC-2998 colon): 40.9 µM | TGI (MDA-MB-231 breast): 35 µM | TGI (NCI/ADR-RES ovarian): 41 µM | TGI (MALME-3M melanoma): 37.2 µM | TGI (EKVX NSCLC): 40.6 µM | TGI (SK-MEL-5 melanoma): 33.4 µM | TGI (CAKI-1 renal): 34.6 µM | TGI (MDA-MB-435): 34.4 µM | TGI (SF-268 CNS): 34.6 µM | TGI (SNB-75 CNS): 39.9 µM | TGI (HOP-62 NSCLC): 38.8 µM | TGI (SN12C renal): 34.8 µM | TGI (HCT-15 colon): 41.1 µM | TGI (MOLT-4 leukemia): > 100 µM | TGI (ACHN renal): 37.8 µM | TGI (HS 578T breast): 89.5 µM | TGI (UACC-257 melanoma): 35.6 µM | TGI (UO-31 renal): 32.4 µM | TGI (786-0 renal): 46.3 µM | TGI (MDA-N): 37.4 µM | TGI (HOP-92 NSCLC): 28.4 µM | TGI (SF-539 CNS): 36.9 µM | TGI (UACC-62 melanoma): 34.4 µM | TGI (RXF 393 renal): 37 µM

NC(=S)N/N=C1\c2ccccc2-c2c(F)c(F)c(F)c(F)c21
GI50 (CCRF-CEM leukemia): 1.09 µM | TGI (CCRF-CEM leukemia): 3.95 µM | GI50 (A549 NSCLC): 16.7 µM | TGI (A549 NSCLC): > 58.4 µM | GI50 (BT-549 breast): 4.92 µM | TGI (BT-549 breast): 10.7 µM | GI50 (NCI-H460 lung): 5.65 µM | TGI (NCI-H460 lung): 24.7 µM | GI50 (NCI-H522 lung): 0.321 µM | TGI (NCI-H522 lung): 1.21 µM | GI50 (MCF7 breast): 2.39 µM | TGI (MCF7 breast): 14.3 µM | GI50 (HL-60(TB) leukemia): 3.58 µM | TGI (HL-60(TB) leukemia): 16 µM | GI50 (OVCAR-5 ovarian): 13.6 µM | TGI (OVCAR-5 ovarian): 30.5 µM | GI50 (COLO 205 colon): 8.01 µM | TGI (COLO 205 colon): 19.6 µM | GI50 (OVCAR-8 ovarian): 1.84 µM | TGI (OVCAR-8 ovarian): 3.68 µM | GI50 (KM12 colon): 5.88 µM | TGI (KM12 colon): 16.3 µM | GI50 (NCI-H23 lung): 9.79 µM | TGI (NCI-H23 lung): 25 µM | GI50 (OVCAR-3 ovarian): 2.06 µM | TGI (OVCAR-3 ovarian): 3.88 µM | GI50 (SK-OV-3 ovarian): 14.1 µM | TGI (SK-OV-3 ovarian): 36.5 µM | GI50 (PC-3 prostate): 10.1 µM | TGI (PC-3 prostate): 28.3 µM | GI50 (SR leukemia): 0.298 µM | TGI (SR leukemia): 1.86 µM | GI50 (HCT-116 colon): 1.67 µM | TGI (HCT-116 colon): 3.15 µM | GI50 (HT29 colon): 2.2 µM | TGI (HT29 colon): 5.07 µM | GI50 (NCI-H226 lung): 13.1 µM | TGI (NCI-H226 lung): 28.9 µM | GI50 (SW-620 colon): 1.79 µM | TGI (SW-620 colon): 3.66 µM | GI50 (A498 renal): 16.5 µM | TGI (A498 renal): 55.7 µM | GI50 (SF-295 CNS): 12.4 µM | TGI (SF-295 CNS): 57.7 µM | GI50 (OVCAR-4 ovarian): 1.65 µM | TGI (OVCAR-4 ovarian): 3.52 µM | GI50 (RPMI-8226 leukemia): 3.92 µM | TGI (RPMI-8226 leukemia): > 55.9 µM | GI50 (SK-MEL-28 melanoma): 2.99 µM | TGI (SK-MEL-28 melanoma): 8.87 µM | GI50 (SK-MEL-2 melanoma): 5.38 µM | TGI (SK-MEL-2 melanoma): 21.7 µM | GI50 (LOX IMVI melanoma): 2.34 µM | TGI (LOX IMVI melanoma): 7.64 µM | GI50 (K-562 leukemia): 2.09 µM | TGI (K-562 leukemia): 6.61 µM | GI50 (T-47D breast): 1.91 µM | TGI (T-47D breast): 5.08 µM | GI50 (SNB-19 CNS): 11.4 µM | TGI (SNB-19 CNS): 29.2 µM | GI50 (DU-145 prostate): 5.39 µM | TGI (DU-145 prostate): 17 µM | GI50 (M14 melanoma): 4.53 µM | TGI (M14 melanoma): 15.6 µM | GI50 (TK-10 renal): 5.7 µM | TGI (TK-10 renal): 15.9 µM | GI50 (HCC-2998 colon): 3.11 µM | TGI (HCC-2998 colon): 9.37 µM | GI50 (MDA-MB-231 breast): 4.21 µM | TGI (MDA-MB-231 breast): 10.7 µM | GI50 (NCI/ADR-RES ovarian): 5.77 µM | TGI (NCI/ADR-RES ovarian): 16.7 µM | GI50 (MALME-3M melanoma): 7.54 µM | TGI (MALME-3M melanoma): 21.1 µM | GI50 (EKVX NSCLC): 25.4 µM | TGI (EKVX NSCLC): > 100 µM | GI50 (SK-MEL-5 melanoma): 17.1 µM | TGI (SK-MEL-5 melanoma): > 50.4 µM | GI50 (CAKI-1 renal): 2.34 µM | TGI (CAKI-1 renal): 7.16 µM | GI50 (MDA-MB-435): 7.44 µM | TGI (MDA-MB-435): 20.6 µM | GI50 (SF-268 CNS): 5.26 µM | TGI (SF-268 CNS): 12.5 µM | GI50 (SNB-75 CNS): 6.36 µM | TGI (SNB-75 CNS): 21.6 µM | GI50 (HOP-62 NSCLC): 2.71 µM | TGI (HOP-62 NSCLC): 6.72 µM | GI50 (SN12C renal): 7.31 µM | TGI (SN12C renal): 20 µM | GI50 (HCT-15 colon): 2.05 µM | TGI (HCT-15 colon): 4.61 µM | GI50 (MOLT-4 leukemia): 1.8 µM | TGI (MOLT-4 leukemia): 5.31 µM | GI50 (ACHN renal): 2.11 µM | TGI (ACHN renal): 4.38 µM | GI50 (HS 578T breast): 6.25 µM | TGI (HS 578T breast): 39.5 µM | GI50 (UACC-257 melanoma): 2.93 µM | TGI (UACC-257 melanoma): 9.38 µM | GI50 (UO-31 renal): 4.31 µM | TGI (UO-31 renal): 9.03 µM | GI50 (786-0 renal): 6.56 µM | TGI (786-0 renal): 20 µM | GI50 (HOP-92 NSCLC): 6.33 µM | TGI (HOP-92 NSCLC): 19.9 µM | GI50 (SF-539 CNS): 5.39 µM | TGI (SF-539 CNS): 12.8 µM | GI50 (UACC-62 melanoma): 8.97 µM | TGI (UACC-62 melanoma): 24.6 µM | GI50 (RXF 393 renal): 2.07 µM | TGI (RXF 393 renal): 3.85 µM | GI50 (IGROV1 ovarian): 5.81 µM | TGI (IGROV1 ovarian): 13.8 µM | GI50 (U251 CNS): 3.16 µM | TGI (U251 CNS): 10.2 µM

Source: PubChem BioAssay (NCI)
